# Laboratory results reported in patent publication US9221767B2, “Substituted phthalazinones as rock inhibitors” (BRISTOL-MYERS SQUIBB COMPANY, priority 2013, dated 2015).
# Read-outs that look alike come from different tables or passages of the source.
# How the values were obtained:
# [1] = target: ROCK2 (Homo sapiens (Human), UniProt O75116); assay: ROCK assay (LabChip peptide phosphorylation), ROCK2; assay type: biochemical; conditions: 5 μM ATP, 1.5 μM peptide substrate
# Description: (§1) The effectiveness of compounds of the present invention as ROCK inhibitors can be determined in a 30 μL assay containing 20 mM HEPES, pH 7.5, 20 mM MgCl2, 0.015% Brij-35, 4 mM DTT, 5 μM ATP and 1.5 μM peptide substrate (FITC-AHA-[…]-OH). Compounds were dissolved in DMSO so that the final concentration of DMSO was <2%, and the reaction was initiated with Rho kinase variants. After incubation, the reaction was terminated by the addition of EDTA and the phosphorylated and non-phosphorylated peptides separated using a LabChip 3000 Reader (Caliper Life Sciences). […] Compounds were tested in dose-response format, and the inhibition of kinase activity was calculated at each concentration of compound. The inhibition data were fit using a curve-fitting program to determine the IC50; i.e., the concentration of compound required to inhibit 50% of kinase activity.”
# [2] = target: ROCK1 (Homo sapiens (Human), UniProt Q13464); assay: ROCK assay (LabChip peptide phosphorylation), ROCK1; assay type: biochemical; conditions: 5 μM ATP, 1.5 μM peptide substrate
# Description: as §1
# [3] = test system: neointimal formation in rats; conditions: cited from earlier work
# [4] = test system: Dahl salt-sensitive rats; conditions: rat, in vivo; cited from earlier work
# [5] = test system: spontaneously hypertensive rat, renal hypertensive rat and deoxycortisone acetate salt hypertensive rat models; conditions: cited from earlier work
# [6] = test system: IL-1 beta-induced coronary stenosis; conditions: long term treatment; cited from earlier work
# [7] = test system: rat stroke model; conditions: in vivo; cited from earlier work
# Sequence of ROCK2 (O75116 whole entry, species assumed): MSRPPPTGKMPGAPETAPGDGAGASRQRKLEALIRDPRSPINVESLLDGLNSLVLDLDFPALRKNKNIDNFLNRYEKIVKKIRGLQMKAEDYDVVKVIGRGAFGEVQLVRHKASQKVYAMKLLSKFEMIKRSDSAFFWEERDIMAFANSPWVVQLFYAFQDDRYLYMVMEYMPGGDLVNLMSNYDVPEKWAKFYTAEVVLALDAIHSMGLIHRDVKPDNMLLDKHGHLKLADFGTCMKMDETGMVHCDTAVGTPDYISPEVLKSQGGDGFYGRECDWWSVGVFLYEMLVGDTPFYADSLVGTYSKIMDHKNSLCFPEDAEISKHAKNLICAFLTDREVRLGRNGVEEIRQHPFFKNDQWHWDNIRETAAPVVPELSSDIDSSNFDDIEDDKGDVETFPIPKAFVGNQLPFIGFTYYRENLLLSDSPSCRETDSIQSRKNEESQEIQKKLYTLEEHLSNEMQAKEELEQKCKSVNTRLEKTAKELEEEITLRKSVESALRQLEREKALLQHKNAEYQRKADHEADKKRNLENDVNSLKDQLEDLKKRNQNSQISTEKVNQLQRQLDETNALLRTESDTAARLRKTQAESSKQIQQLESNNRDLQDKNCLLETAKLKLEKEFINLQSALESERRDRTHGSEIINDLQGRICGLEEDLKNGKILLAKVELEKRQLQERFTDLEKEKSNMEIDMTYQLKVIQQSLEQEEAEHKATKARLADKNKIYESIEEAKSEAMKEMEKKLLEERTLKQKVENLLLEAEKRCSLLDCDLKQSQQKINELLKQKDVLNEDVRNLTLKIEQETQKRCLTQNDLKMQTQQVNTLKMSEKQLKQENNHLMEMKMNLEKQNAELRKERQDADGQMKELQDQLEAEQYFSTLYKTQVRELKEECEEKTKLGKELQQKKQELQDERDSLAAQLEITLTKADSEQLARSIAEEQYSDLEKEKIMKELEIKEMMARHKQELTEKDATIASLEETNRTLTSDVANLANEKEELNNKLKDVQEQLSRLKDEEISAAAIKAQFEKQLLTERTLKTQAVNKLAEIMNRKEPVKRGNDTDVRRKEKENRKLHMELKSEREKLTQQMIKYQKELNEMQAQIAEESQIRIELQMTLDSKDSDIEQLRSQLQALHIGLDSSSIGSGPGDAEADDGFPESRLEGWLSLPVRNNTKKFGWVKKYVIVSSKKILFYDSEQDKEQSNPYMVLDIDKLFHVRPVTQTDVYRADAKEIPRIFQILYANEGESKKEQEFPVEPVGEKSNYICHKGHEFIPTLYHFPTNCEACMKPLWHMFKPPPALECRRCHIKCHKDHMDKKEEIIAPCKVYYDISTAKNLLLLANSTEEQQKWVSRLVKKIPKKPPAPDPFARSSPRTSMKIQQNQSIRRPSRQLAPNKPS
# Sequence of ROCK1 (Q13464 whole entry, species assumed): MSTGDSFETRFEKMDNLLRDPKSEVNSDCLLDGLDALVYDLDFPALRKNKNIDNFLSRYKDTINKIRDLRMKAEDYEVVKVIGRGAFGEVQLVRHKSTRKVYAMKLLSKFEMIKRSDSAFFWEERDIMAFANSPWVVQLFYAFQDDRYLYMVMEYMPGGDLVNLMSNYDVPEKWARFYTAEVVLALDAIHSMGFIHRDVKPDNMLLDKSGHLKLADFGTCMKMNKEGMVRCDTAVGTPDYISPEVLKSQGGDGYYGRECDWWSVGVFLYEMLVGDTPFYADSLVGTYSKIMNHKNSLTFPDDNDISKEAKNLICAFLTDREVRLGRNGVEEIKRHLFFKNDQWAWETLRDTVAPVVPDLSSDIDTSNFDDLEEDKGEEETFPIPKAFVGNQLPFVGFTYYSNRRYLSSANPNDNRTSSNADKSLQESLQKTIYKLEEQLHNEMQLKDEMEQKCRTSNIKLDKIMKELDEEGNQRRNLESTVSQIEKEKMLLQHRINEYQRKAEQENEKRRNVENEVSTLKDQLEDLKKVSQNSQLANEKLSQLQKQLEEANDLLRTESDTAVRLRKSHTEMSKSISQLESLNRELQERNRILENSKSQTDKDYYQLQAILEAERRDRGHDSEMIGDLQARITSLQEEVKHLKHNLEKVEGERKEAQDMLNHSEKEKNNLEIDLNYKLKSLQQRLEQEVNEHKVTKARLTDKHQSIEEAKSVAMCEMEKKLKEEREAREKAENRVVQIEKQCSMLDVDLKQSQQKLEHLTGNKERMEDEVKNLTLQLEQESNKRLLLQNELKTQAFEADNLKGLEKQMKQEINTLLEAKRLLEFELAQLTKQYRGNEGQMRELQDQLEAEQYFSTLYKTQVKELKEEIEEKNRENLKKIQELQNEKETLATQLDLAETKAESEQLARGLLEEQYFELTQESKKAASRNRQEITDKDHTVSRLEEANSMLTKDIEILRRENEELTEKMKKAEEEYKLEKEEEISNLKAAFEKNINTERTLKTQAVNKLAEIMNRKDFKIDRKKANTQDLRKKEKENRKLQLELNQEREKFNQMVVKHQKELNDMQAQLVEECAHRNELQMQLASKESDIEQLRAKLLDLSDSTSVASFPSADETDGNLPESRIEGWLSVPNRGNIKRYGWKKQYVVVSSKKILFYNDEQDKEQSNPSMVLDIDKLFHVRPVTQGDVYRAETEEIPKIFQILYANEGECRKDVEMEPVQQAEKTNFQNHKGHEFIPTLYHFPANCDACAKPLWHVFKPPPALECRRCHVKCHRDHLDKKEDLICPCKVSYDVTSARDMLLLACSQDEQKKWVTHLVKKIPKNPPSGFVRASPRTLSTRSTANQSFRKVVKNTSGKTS
SMILES,IC50 [1] [nM],IC50 [2] [nM],further results
O=C(Nc1ccc(-c2n[nH]c(=O)c3ccccc23)cc1)c1ccccc1 [Example 67],14,175,
"C[C@@H](N)[C@H]1CC[C@H](C(=O)Nc2ccncc2)CC1 [Example Y-27632, Y-27632]",,,"neointimal formation [3]: inhibited neointimal formation; ventricular hypertrophy, fibrosis and function [4]: improve ventricular hypertrophy, fibrosis and function; blood pressure ([5]; control rats): only a minor effect on blood pressure; blood pressure ([5]; three rat models of hypertension): significantly decrease blood pressure"
O=C(Cc1ccc(-c2n[nH]c(=O)c3ccccc23)cc1)NC1CCC1 [Example 19],5830,6480,
O=S(=O)(c1cccc2cnccc12)N1CCCNCC1 [fasudil],,,coronary constrictive remodeling [6]: promote a regression of coronary constrictive remodeling; coronary stenosis [6]: progressively reduce coronary stenosis; infarct size [7]: reduce; neurologic deficit [7]: reduce
O=C(Cc1ccc(-c2n[nH]c(=O)c3ccccc23)cc1)N1CCCc2ccccc21 [Example 34],553,11900,
Cn1ccnc1C(=O)Nc1ccc(-c2n[nH]c(=O)c3ccccc23)cc1 [Example 52],225,544,
"O=C(Cc1ccc(-c2n[nH]c(=O)c3ccccc23)cc1)N1Cc2ccc(F)cc2C1 [Example 2, 4-(4-(2-(5-fluoroisoindolin-2-yl)-2-oxoethyl)phenyl)phthalazin-1(2H)-one]",30,679,
"O=C(Oc1ccc(-c2n[nH]c(=O)c3ccccc23)cc1)N1CCC(c2ccccc2)C1 (stereo not shown) [Example 69, 4-(4-oxo-3,4-dihydrophthalazin-1-yl)phenyl 3-phenylpyrrolidine-1-carboxylate]",894,50000,
O=C(Nc1ccc(-c2n[nH]c(=O)c3ccccc23)cc1)c1ccc(N2CCCCC2)cc1 [Example 61],2.1,49,
"O=C(Nc1ccc(-c2n[nH]c(=O)c3ccccc23)cc1)N1CCc2ccccc21 [Example 76, N-(4-(4-oxo-3,4-dihydrophthalazin-1-yl)phenyl)indoline-1-carboxamide]",1.2,20,
CN(C)c1ccc(C(=O)Nc2ccc(-c3n[nH]c(=O)c4ccccc34)cc2)cc1 [Example 58],0.3,35,
O=C(Cc1ccc(-c2n[nH]c(=O)c3ccccc23)cc1)Nc1nc2ccccc2o1 [Example 10],17,729,
O=C(Nc1ccc(-c2n[nH]c(=O)c3ccccc23)cc1)c1csc(-c2ccc(C(F)(F)F)cc2)n1 [Example 48],39,670,
COC[C@@H]1CCCN1C(=O)Cc1ccc(-c2n[nH]c(=O)c3ccccc23)cc1 [Example 13],9730,16200,
CCOc1ccc2c(c1)N(C(=O)Cc1ccc(-c3n[nH]c(=O)c4ccccc34)cc1)CC2 [Example 33],1.2,23,
